We go through eleven compounds from patent publication US10071957B2, “N-substituted benzamides and methods of use thereof” (GENENTECH, INC., priority 2012, dated 2018).

Bounds are passed on as bounds.

One test addresses hNaV1.5 (Homo sapiens (Human), UniProt Q14524). Kind of test: Patch voltage clamp electrophysiology, inactivated state block of NaV1.5 in HEK-293 cells. The following applies: HEK cells with β1 subunit, read-out: hNaV 1.5 IC50. It is filed as cell-based. The procedure: (§1) Patch voltage clamp electrophysiology allows for the direct measurement and quantification of block of voltage-gated sodium channels (NaV's), and allows the determination of the time- and voltage-dependence of block which has been interpreted as differential binding to the resting, open, and inactivated states of the sodium channel (Hille, B., Journal of General Physiology (1977), 69: 497-515).
(§2) The following patch voltage clamp electrophysiology studies were performed on representative compounds of the invention using human embryonic kidney cells (HEK), permanently transfected with an expression vector containing the full-length cDNA coding for the desired human sodium channel α-subunit, grown in culture media containing 10% FBS, 1% PSG, and 0.5 mg/mL G418 at 37° C. with 5% CO2. […] NaV1.7 and NaV1.5 cDNAs (NM_002977 and AC137587; SCN5A, respectively) were stably expressed in HEK-293 cells. The β1 subunit was coexpressed in both the NaV1.7 and NaV1.5 cell lines.
(§3) Sodium currents were measured using the patch clamp technique in the whole-cell configuration using either a PatchXpress automated voltage clamp or manually using an Axopatch 200B (Axon Instruments) or Model 2400 (A-M systems) amplifier. The manual voltage clamp protocol was as follows:
(§4) Borosilicate glass micropipettes were fire-polished to a tip diameter yielding a resistance of 2-4 Mohms in the working solutions. The pipette was filled with a solution comprised of: 5 mM NaCl, 10 mM CsCl, 120 mM CsF, 0.1 mM CaCl2, 2 mM MgCl2, 10 mM HEPES, 10 mM EGTA; and adjusted to pH 7.2 with CsOH. The external solution had the following composition: 140 mM NaCl, 5 mM KCl, 2 mM CaCl2, 1 mM MgCl2, 10 mM HEPES; and adjusted to pH 7.4 with NaOH. In some studies, the external sodium was reduced by equimolar replacement with choline. Osmolarity in the CsF internal and NaCl external solutions was adjusted to 300 mOsm/kg and 310 mOsm/kg with glucose, respectively. All recordings were performed at ambient temperature in a bath chamber with a volume of 150 μL. Control sodium currents were measured in 0.5% DMSO. Controls and representative compounds of the invention were applied to the recording chamber through a 4-pinch or 8-pinch valve bath perfusion system manufactured by ALA Scientific Instruments.
(§5) Currents were recorded at 40 kHz sampling frequency, filtered at […], and stored using a Digidata-1322A analogue/digital interface with the pClamp software (Axon Instruments). Series resistance compensation was applied (60-80%). […] All statistics in this study are given as mean±SD.
The membrane potential was maintained at a voltage where inactivation of the channel is complete (which was −60 mV for both NaV1.7 and NaV1.5). The voltage is then stepped back to a very negative (Vhold=[…]) voltage for 20 ms and then a test pulse is applied to quantify the compound block. The 20 ms brief repolarization was long enough for compound-free channels to completely recover from fast inactivation, but the compound-bound channels recovered more slowly such that negligible recovery could occur during this interval. The percent decrease in sodium current following wash-on of compound was taken as the percent block of sodium channels.

In test [1] the target is T1, hNaV1.7 (Homo sapiens (Human), UniProt Q15858). Kind of test: Patch voltage clamp electrophysiology, inactivated state block of NaV1.7 in HEK-293 cells. It is filed as cell-based. The settings on record: HEK cells with β1 subunit, read-out: hNaV 1.7 IC50. The procedure: as §1, §2, §3
as §4, with “The” for “Borosilicate glass micropipettes were fire-polished to a tip diameter yielding a resistance of 2-4 Mohms in the working solutions. The”
as §5
The membrane potential was maintained at a voltage where inactivation of the channel is complete (which was −60 mV for both NaV1.7 and NaV1.5). […] The percent decrease in sodium current following wash-on of compound was taken as the percent block of sodium channels.

Test [2] has as its target T1, hNaV1.7. As to the kind of experiment: Competitive binding of tritiated compound to membranes from cells expressing hNav1.7 and the β1 subunit. The settings on record: 100 pM [3H]compound, 18 h, room temperature; read-out: NaV1.7 395 Membrane Binding IC50. In outline:
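Membranes from cells expressing hNav1.7 with β1 subunit incubated 18 h at room temperature with 100 pM tritiated reference compound and test compound in 100 mM NaCl, 20 mM Tris HCl, pH 7.4. Nonspecific binding defined with 1 μM unlabelled compound; bound radioactivity counted after GF/C filtration. IC50 from 4-parameter logistic fit.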

T1 sequence (Q15858 whole entry, looked up): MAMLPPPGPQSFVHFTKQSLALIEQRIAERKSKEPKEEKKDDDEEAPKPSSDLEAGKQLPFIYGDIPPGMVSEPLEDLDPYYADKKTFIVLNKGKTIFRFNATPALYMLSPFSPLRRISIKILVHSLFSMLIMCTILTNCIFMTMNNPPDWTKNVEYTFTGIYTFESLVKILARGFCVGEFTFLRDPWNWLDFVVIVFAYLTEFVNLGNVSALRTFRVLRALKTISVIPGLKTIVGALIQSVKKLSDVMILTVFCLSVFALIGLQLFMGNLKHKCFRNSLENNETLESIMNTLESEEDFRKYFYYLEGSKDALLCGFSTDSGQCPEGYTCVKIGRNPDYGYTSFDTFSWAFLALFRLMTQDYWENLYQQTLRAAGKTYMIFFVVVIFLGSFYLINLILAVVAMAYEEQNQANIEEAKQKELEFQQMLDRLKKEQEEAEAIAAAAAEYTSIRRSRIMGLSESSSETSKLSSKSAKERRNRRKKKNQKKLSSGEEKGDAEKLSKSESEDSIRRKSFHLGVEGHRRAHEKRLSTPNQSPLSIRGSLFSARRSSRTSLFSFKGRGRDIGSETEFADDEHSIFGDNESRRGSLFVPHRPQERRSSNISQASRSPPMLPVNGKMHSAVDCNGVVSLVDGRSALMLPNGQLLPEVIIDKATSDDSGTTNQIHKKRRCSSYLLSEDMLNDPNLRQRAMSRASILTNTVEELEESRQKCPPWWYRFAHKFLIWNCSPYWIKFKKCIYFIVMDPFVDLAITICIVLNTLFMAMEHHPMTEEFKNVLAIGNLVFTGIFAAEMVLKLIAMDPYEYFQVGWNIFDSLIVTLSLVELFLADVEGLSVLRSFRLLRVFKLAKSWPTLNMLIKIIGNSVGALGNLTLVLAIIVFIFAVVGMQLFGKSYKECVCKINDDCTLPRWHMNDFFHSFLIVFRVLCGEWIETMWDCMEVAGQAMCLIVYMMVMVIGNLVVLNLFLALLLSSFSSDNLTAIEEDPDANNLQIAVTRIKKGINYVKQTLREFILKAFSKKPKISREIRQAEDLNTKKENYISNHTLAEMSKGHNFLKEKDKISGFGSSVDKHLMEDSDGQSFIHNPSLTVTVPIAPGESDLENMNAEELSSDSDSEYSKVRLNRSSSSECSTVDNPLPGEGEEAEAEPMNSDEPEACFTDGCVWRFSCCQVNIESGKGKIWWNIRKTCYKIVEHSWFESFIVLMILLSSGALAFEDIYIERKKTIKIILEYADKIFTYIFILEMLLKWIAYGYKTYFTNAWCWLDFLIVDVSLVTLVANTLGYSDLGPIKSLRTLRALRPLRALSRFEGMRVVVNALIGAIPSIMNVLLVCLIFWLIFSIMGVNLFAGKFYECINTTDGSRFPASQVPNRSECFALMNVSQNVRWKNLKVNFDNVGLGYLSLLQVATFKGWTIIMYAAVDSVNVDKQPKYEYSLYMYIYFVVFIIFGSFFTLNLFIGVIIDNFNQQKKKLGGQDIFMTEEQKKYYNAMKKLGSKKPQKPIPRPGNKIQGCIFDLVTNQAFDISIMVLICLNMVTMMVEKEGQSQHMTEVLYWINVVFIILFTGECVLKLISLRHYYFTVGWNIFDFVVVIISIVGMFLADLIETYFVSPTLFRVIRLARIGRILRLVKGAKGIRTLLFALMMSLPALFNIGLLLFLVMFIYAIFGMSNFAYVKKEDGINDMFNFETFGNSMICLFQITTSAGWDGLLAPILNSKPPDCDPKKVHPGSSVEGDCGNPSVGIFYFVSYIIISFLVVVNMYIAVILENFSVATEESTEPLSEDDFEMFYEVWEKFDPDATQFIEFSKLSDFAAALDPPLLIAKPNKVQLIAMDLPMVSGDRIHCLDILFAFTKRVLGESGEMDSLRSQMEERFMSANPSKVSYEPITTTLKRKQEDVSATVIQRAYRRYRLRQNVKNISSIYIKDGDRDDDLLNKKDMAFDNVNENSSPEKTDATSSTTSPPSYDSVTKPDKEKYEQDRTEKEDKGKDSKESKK
T1 sequence (Q07699 whole entry partner, looked up): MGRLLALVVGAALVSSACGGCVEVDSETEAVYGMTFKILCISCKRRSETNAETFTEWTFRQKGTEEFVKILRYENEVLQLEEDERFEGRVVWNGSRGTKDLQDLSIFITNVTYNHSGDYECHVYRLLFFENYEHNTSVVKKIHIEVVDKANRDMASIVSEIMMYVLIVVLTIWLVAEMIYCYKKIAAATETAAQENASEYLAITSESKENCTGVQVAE
Chain of hNaV1.5 (Q14524 whole entry): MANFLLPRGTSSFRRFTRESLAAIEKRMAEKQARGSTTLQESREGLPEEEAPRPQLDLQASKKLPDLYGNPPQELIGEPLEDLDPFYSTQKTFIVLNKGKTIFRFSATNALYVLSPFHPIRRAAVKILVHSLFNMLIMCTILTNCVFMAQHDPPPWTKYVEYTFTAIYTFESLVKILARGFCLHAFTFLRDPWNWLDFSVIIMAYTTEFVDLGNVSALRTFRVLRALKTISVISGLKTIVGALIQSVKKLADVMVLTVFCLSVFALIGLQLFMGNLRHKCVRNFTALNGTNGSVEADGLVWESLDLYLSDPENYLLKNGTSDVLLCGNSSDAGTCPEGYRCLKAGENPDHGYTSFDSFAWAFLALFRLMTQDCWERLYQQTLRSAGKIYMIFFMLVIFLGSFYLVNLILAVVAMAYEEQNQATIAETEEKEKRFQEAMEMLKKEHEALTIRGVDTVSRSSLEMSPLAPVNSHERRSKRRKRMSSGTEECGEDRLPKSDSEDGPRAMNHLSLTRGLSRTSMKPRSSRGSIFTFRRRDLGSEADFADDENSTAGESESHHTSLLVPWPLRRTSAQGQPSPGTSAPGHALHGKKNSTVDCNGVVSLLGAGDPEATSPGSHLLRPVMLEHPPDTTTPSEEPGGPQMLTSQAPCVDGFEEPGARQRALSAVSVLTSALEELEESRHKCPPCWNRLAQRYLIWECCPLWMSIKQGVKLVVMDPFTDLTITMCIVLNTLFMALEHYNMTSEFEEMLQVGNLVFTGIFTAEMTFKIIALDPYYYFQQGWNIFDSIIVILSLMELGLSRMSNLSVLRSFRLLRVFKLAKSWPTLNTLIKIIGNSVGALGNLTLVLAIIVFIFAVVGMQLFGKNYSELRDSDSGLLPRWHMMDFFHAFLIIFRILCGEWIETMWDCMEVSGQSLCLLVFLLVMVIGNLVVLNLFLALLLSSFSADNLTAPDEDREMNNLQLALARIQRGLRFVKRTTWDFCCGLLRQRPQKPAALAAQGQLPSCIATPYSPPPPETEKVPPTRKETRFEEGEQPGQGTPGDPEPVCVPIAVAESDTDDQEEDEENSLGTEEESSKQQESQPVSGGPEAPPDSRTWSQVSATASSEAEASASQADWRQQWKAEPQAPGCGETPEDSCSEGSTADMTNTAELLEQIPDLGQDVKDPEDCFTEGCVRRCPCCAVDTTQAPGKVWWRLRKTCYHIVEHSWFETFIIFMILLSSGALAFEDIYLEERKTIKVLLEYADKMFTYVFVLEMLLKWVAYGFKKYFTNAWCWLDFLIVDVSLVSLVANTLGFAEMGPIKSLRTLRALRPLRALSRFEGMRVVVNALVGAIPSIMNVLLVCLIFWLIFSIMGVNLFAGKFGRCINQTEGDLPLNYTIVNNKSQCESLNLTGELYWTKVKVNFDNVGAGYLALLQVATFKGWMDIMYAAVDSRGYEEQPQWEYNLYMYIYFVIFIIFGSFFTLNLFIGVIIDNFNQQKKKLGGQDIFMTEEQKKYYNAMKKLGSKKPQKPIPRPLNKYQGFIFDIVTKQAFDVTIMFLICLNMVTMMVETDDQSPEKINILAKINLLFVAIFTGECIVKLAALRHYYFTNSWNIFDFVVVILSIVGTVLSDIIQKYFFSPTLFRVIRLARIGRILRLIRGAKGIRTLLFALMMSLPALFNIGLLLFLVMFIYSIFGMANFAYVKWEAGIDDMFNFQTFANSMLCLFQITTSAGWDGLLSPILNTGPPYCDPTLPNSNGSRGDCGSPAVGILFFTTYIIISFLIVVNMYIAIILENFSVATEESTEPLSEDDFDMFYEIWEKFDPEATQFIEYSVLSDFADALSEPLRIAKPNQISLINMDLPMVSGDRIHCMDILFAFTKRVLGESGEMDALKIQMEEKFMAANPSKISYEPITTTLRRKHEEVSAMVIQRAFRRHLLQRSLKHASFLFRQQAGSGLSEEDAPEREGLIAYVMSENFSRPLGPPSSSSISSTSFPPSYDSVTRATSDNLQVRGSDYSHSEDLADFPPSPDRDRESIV

`CC(C)COc1ncc(Oc2cc(F)c(C(=O)NS(=O)(=O)N(C)C)cc2Cl)cc1Cl` [Preparation 3, 5-chloro-4-((5-chloro-6-isobutoxypyridin-3-yl)oxy)-N-(N,N-dimethylsulfamoyl)-2-fluorobenzamide]: the figures for the 50% inhibitory concentration (IC50) on hNaV1.5, at hNaV1.7 [1] and at hNaV1.7 [2] were 2180 nM, 11 nM and 24.8 nM, respectively.
Taken in the same sequence, the figures for `CNS(=O)(=O)NC(=O)c1cc(Cl)c(Oc2cnc(OCC(C)C)c(Cl)c2)cc1F` [Preparation 6, 5-chloro-4-((5-chloro-6-isobutoxypyridin-3-yl)oxy)-2-fluoro-N-(N-methylsulfamoyl) benzamide] were 7180 nM, 6 nM and 8.5 nM.
With `CN(C)S(=O)(=O)NC(=O)c1cc(Cl)c(Oc2cnc(OCC(F)(F)C(F)F)c(Cl)c2)cc1F` [Preparation 30, 5-chloro-4-(5-chloro-6-(2,2,3,3-tetrafluoro-propoxy)pyridin-3-yloxy)-N-(N,N-dimethylsulfamoyl)-2-fluorobenzamide], the half-maximal inhibitory concentration (IC50) on hNaV1.7 [1] stood at 34 nM; on hNaV1.7 [2], 47.8 nM.
The corresponding values for `CN(C)S(=O)(=O)NC(=O)c1cc(Cl)c(COc2cnc(OCC(F)(F)C(F)F)c(Cl)c2)cc1F` [Preparation 76] are 34.3 nM and 220 nM.
Taken in the same sequence, the figures for `CNS(=O)(=O)NC(=O)c1cc(Cl)c(COc2ccc(Cl)c(Cl)c2)cc1F` [Preparation 80] were 11.6 nM and 28 nM.
Taken in the same sequence, the figures for `CC(C)Oc1ncc(OCc2cc(F)c(C(=O)NS(=O)(=O)N3CCC3)cc2Cl)cc1Cl` [Preparation 82] were 6.1 nM and 43 nM.
Turning to `CC(C)Oc1ncc(Oc2ccc(C(=O)NS(=O)(=O)N3CCC3)cc2C2CC2)cc1Cl` [Preparation 84], the IC50 on hNaV1.5 worked out at 3500 nM; at hNaV1.7 [1] it was 8.4 nM; on hNaV1.7 [2] it was 25 nM.
On to `COc1ncccc1-c1cc(C(=O)NS(=O)(=O)N2CCC2)ccc1Oc1cnc(OC(C)C)c(Cl)c1` [Preparation 86], for which the 50% inhibitory concentration (IC50) at hNaV1.5 is greater than 10000 nM; at hNaV1.7 [1], 22 nM; at hNaV1.7 [2], 11 nM.
The corresponding values for `CC(C)Oc1ncc(Oc2cc(F)c(C(=O)NS(=O)(=O)N3CCC3)cc2C2CC2)cc1Cl` [Preparation 87] are 1200 nM, 2.1 nM and 6 nM.
For the compound `C=Cc1cc(C(=O)NS(=O)(=O)N2CCC2)c(F)cc1Oc1cnc(OC(C)C)c(Cl)c1` [Preparation 91], the values for the IC50 on hNaV1.5, on hNaV1.7 [1] and at hNaV1.7 [2] were 2600 nM, 6.7 nM and 5 nM, respectively.
Regarding `C=Cc1cc(C(=O)NS(=O)(=O)N2CCC2)c(F)cc1Oc1cnc(OCC(F)(F)F)c(Cl)c1` [Preparation 92], the IC50 at hNaV1.7 [1] came to 4.3 nM; on hNaV1.7 [2] it was 11 nM.
